Measurements published in publication PMC5187916, “Discovery of a New Class of Cathepsin K Inhibitors in Rhizoma Drynariae as Potential Candidates for the Treatment of Osteoporosis” (International Journal of Molecular Sciences, 2016).

Experiments:
[1] = biological target: T1, Cathepsin K (Homo sapiens, UniProt P43235); assay: fluorescence enzyme assay with recombinant human Ctsk, LR-AFC substrate; assay type: biochemical
T1 construct: gene CTSK
T1 sequence (P43235 115-329): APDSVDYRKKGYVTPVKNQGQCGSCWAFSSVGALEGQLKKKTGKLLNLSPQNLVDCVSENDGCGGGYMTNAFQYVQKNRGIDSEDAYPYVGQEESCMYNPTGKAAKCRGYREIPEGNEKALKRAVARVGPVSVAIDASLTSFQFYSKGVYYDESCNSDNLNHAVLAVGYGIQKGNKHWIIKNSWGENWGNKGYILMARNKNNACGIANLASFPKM

[2] = biological target: T1, Cathepsin K; assay: fluorescence enzyme assay with recombinant human Ctsk, LR-AFC substrate (kit positive control); assay type: biochemical

IC50 [1] [µM]	IC50 [2] [µM]	Compound
8.79	–	C=C(C)C(CC=C(C)C)Cc1c(O)cc2c(c1O)C(=O)CC(c1ccc(O)cc1O)O2 (stereo not drawn) [KF, Kushennol F]
27.2	–	C=C(C)[C@H](CC=C(C)C)Cc1c(O)cc(O)c2c1O[C@H](c1ccc(O)cc1O)CC2=O [SG, Sophoraflavanone G]
–	0.047	FF-FMK
